Assays:
Assay in all cases: Screen Quest Fluo-8 No Wash Calcium Assay (Bz-ATP evoked Ca2+ influx, FLIPR)
Assay type in all cases: cell-based
P2X7 receptor [1] = biological target: T1, P2X7 receptor (Mus musculus, UniProt Q9Z1M0); settings: mP2X7; HEK-293 cells stably transfected with P2X7 receptor, Bz-ATP at EC80, Fluo-8 NW; potency ranges A-D
T1 construct: mP2X7 (IC50; nM); other: mP2X7; HEK-293 cells stably transfected with P2X7 receptor, Bz-ATP at EC80, Fluo-8 NW; potency
T1 sequence (Q9Z1M0 1-595): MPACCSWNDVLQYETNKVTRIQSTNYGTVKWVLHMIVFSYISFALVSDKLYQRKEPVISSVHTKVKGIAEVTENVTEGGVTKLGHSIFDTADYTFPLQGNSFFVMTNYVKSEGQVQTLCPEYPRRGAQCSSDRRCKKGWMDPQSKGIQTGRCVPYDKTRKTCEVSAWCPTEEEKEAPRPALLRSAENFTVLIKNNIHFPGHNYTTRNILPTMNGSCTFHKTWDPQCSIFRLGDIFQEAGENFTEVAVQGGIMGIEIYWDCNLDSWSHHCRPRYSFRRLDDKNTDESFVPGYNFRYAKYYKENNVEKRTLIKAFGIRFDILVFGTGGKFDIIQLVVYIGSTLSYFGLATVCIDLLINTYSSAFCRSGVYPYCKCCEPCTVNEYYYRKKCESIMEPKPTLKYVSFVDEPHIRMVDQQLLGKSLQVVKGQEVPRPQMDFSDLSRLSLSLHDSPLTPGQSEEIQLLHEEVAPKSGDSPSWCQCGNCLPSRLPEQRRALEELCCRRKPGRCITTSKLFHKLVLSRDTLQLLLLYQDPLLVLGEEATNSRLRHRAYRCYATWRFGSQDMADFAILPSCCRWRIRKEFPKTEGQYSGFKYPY
Outline: (§1)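 HEK-293 cells stably expressing P2X7 were loaded with Fluo-8 NW for 1 h at RT, then given compound, and 5 min later Bz-ATP at EC80. Fluorescence was read by FLIPR in low divalent cation buffer (0.3 mM Ca2+, 0 mM Mg2+). IC50 came from percent inhibition relative to reference antagonist A438079.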

P2X7 receptor [2] = biological target: T2, P2X7 receptor (Rattus norvegicus, UniProt Q64663); settings: rP2X7; HEK-293 cells stably transfected with P2X7 receptor, Bz-ATP at EC80, Fluo-8 NW; potency ranges A-D
T2 construct: rP2X7 (IC50; nM); other: rP2X7; HEK-293 cells stably transfected with P2X7 receptor, Bz-ATP at EC80, Fluo-8 NW; potency
T2 sequence (Q64663 1-595): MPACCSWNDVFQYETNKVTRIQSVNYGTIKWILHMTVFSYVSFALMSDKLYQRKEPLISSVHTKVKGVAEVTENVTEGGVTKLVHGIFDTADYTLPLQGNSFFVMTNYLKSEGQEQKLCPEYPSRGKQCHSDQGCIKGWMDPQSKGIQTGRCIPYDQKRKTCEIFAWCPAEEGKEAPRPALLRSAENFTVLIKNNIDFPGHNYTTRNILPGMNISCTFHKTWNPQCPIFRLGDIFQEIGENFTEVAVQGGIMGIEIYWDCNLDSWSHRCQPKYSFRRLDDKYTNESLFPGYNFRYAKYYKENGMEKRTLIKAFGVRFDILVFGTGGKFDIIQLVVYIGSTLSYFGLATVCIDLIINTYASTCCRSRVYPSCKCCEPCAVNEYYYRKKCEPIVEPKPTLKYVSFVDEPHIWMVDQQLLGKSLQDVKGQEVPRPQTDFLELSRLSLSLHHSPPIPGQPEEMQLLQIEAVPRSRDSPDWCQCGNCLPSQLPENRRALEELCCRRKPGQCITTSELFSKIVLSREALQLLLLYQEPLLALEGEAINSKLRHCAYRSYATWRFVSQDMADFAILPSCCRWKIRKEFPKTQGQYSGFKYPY
Outline: as §1

P2X7 receptor [3] = biological target: T3, P2X7 receptor (Homo sapiens, UniProt Q99572); set-up: hP2X7 (IC50; nM); other: hP2X7; HEK-293 cells stably transfected with P2X7 receptor, Bz-ATP at EC80, Fluo-8 NW; potency; settings: hP2X7; HEK-293 cells stably transfected with P2X7 receptor, Bz-ATP at EC80, Fluo-8 NW; potency ranges A-D
T3 sequence (Q99572 1-595): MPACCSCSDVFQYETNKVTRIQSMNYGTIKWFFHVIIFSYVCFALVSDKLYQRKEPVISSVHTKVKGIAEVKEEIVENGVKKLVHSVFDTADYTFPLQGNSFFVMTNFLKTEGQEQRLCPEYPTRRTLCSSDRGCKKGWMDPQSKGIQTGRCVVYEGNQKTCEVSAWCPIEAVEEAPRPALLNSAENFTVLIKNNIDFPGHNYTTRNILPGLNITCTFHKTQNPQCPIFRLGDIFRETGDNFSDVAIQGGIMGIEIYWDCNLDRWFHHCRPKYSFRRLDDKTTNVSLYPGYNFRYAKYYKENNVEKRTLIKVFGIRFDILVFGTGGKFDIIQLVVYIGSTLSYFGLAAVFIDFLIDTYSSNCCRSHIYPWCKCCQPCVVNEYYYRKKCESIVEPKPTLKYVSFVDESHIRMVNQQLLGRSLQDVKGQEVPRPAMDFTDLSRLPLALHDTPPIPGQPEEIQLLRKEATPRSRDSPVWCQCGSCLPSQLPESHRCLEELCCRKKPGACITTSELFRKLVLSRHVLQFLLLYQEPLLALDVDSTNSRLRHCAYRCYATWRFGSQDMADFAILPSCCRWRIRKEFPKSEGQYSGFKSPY
Outline: as §1

IC50 (P2X7 receptor [1]) [nM]	IC50 (P2X7 receptor [2]) [nM]	IC50 (P2X7 receptor [3]) [nM]	SMILES
> 10000	1000 to 10000	> 10000	O=c1onc(Cc2ccccn2)n1CC1CCCCC1 [Example 110, 4-(cyclohexylmethyl)-3-(pyridin-2-ylmethyl)-4,5-dihydro-1,2,4-oxadiazol-5-one]
> 10000	> 10000	1000 to 10000	Cc1ncsc1Cn1c(Cc2c(F)cccc2Cl)noc1=O [Example 31, 3-[(2-chloro-6-fluorophenyl)methyl]-4-[(4-methyl-1,3-thiazol-5-yl)methyl]-4,5-dihydro-1,2,4-oxadiazol-5-one]
1000 to 10000	1000 to 10000	1000 to 10000	CC(c1ccccc1)n1c(CC2CCC(F)(F)CC2)noc1=O (stereo not drawn) [Example 188, 3-[(4,4-difluorocyclohexyl)methyl]-4-(1-phenylethyl)-4,5-dihydro-1,2,4-oxadiazol-5-one]
> 10000	> 10000	> 10000	COCn1c(Cc2c(F)cccc2Cl)noc1=O [Example 100, 3-[(2-chloro-6-fluorophenyl)methyl]-4-(methoxymethyl)-4,5-dihydro-1,2,4-oxadiazol-5-one]
1000 to 10000	200 to 1000	200 to 1000	O=c1onc(CCc2c(F)cccc2Cl)n1Cc1c(F)cccc1Cl [Example 144, 4-(2-chloro-6-fluorobenzyl)-3-[2-(2-chloro-6-fluorophenyl)ethyl]-1,2,4-oxadiazol-5(4H)-one]
> 10000	> 10000	> 10000	O=c1onc(Cc2ccc(F)cc2)n1Cc1cccc(C(F)(F)F)c1Cl [Example 52, 4-{[2-chloro-3-(trifluoromethyl)phenyl]methyl}-3-[(4-fluorophenyl)methyl]-4,5-dihydro-1,2,4-oxadiazol-5-one]
1000 to 10000	200 to 1000	200 to 1000	Cc1ncccc1Cc1noc(=O)n1CC1CCCCC1 [Example 218, 4-(cyclohexylmethyl)-3-[(2-methylpyridin-3-yl)methyl]-4,5-dihydro-1,2,4-oxadiazol-5-one]
1000 to 10000	> 10000	1000 to 10000	O=c1onc(Cc2c(F)cccc2Cl)n1CCCC1CCCCC1 [Example 179, 3-[(2-chloro-6-fluorophenyl)methyl]-4-(3-cyclohexylpropyl)-4,5-dihydro-1,2,4-oxadiazol-5-one]
1000 to 10000	200 to 1000	200 to 1000	O=c1onc(Cc2c(F)cccc2Cl)n1CCN1CCCCC1 [Example 143, 3-(2-chloro-6-fluorobenzyl)-4-[2-(piperidin-1-yl)ethyl]-1,2,4-oxadiazol-5(4H)-one]
1000 to 10000	1000 to 10000	1000 to 10000	O=c1onc(Cc2c(F)cccc2Cl)n1Cc1ccccc1Cl [Example 22, 3-[(2-chloro-6-fluorophenyl)methyl]-4-[(2-chlorophenyl)methyl]-4,5-dihydro-1,2,4-oxadiazol-5-one]
> 10000	> 10000	> 10000	CC(C)(c1c(F)cccc1Cl)c1noc(=O)n1Cc1ccc(F)cc1 [Example 77, 3-[2-(2-chloro-6-fluorophenyl)propan-2-yl]-4-[(4-fluorophenyl)methyl]-4,5-dihydro-1,2,4-oxadiazol-5-one]
> 10000	1000 to 10000	> 10000	O=c1onc(CN2CCCC(F)(F)C2)n1Cc1ccc(F)cc1 [Example 225, 3-[(3,3-difluoropiperidin-1-yl)methyl]-4-[(4-fluorophenyl)methyl]-4,5-dihydro-1,2,4-oxadiazol-5-one]
> 10000	1000 to 10000	1000 to 10000	COc1cccc(Cc2noc(=O)n2Cc2ccc(F)cc2)c1 [Example 109, 4-[(4-fluorophenyl)methyl]-3-[(3-methoxyphenyl)methyl]-4,5-dihydro-1,2,4-oxadiazol-5-one]
> 10000	> 10000	> 10000	O=c1onc(Cc2c(F)cccc2Cl)n1Cc1ncc(F)cn1 [Example 45, 3-[(2-chloro-6-fluorophenyl)methyl]-4-[(5-fluoropyrimidin-2-yl)methyl]-4,5-dihydro-1,2,4-oxadiazol-5-one]
1000 to 10000	1000 to 10000	1000 to 10000	O=c1onc(Cc2c(F)cccc2Cl)n1Cc1cccc(C(F)(F)F)c1Cl [Example 58, 4-{[2-chloro-3-(trifluoromethyl)phenyl]methyl}-3-[(2-chloro-6-fluorophenyl)methyl]-4,5-dihydro-1,2,4-oxadiazol-5-one]
1000 to 10000	> 10000	1000 to 10000	COc1ccccc1Cn1c(Cc2c(F)cccc2Cl)noc1=O [Example 28, 3-[(2-chloro-6-fluorophenyl)methyl]-4-[(2-methoxyphenyl)methyl]-4,5-dihydro-1,2,4-oxadiazol-5-one]
1000 to 10000	1000 to 10000	200 to 1000	Cc1ncccc1Cc1noc(=O)n1CC1CCC(F)(F)CC1 [Example 219, 4-[(4,4-difluorocyclohexyl)methyl]-3-[(2-methylpyridin-3-yl)methyl]-4,5-dihydro-1,2,4-oxadiazol-5-one]
1000 to 10000	1000 to 10000	1000 to 10000	O=c1onc(C(O)c2ccc(F)cc2F)n1Cc1c(F)cccc1Cl (stereo not drawn) [Example 137, 4-[(2-chloro-6-fluorophenyl)methyl]-3-[(2,4-dffluorophenyl)(hydroxy)methyl]-4,5-dihydro-1,2,4-oxadiazol-5-one]
1000 to 10000	1000 to 10000	200 to 1000	O=c1onc(Cc2c(F)cccc2Cl)n1CCN1CCC(F)(F)CC1 [Example 181, 3-[(2-chloro-6-fluorophenyl)methyl]-4-[2-(4,4-difluoropiperidin-1-yl)ethyl]-4,5-dihydro-1,2,4-oxadiazol-5-one]
1000 to 10000	> 10000	> 10000	Cc1ncccc1Cn1c(Cc2c(F)cccc2Cl)noc1=O [Example 24, 3-[(2-chloro-6-fluorophenyl)methyl]-4-[(2-methylpyridin-3-yl)methyl]-4,5-dihydro-1,2,4-oxadiazol-5-one]

SMILES	IC50 (P2X7 receptor [1]) [nM]	IC50 (P2X7 receptor [2]) [nM]	IC50 (P2X7 receptor [3]) [nM]
O=c1onc(Cc2c(F)cccc2Cl)n1Cc1cncnc1 [Example 38, 3-[(2-chloro-6-fluorophenyl)methyl]-4-(pyrimidin-5-ylmethyl)-4,5-dihydro-1,2,4-oxadiazol-5-one]	> 10000	> 10000	> 10000

— US11623919B2, “Heterocyclic P2X7 antagonists” (AXXAM S.P.A., priority 2017, dated 2023)
